What was measured:
hERG (KCNH2) [1] = target: T1, hERG (KCNH2) (Homo sapiens, UniProt Q12809); test: Inhibition of human ERG expressed in HEK293 cells assessed as inhibition of tail current at holding potential of -70 mV at 100 uM after 10 mins by whole-cell patch clamp method; format: cell-based; details: HEK293 cells that express hERG
hERG (KCNH2) [2] = target: T1, hERG (KCNH2); test: Inhibition of human ERG expressed in HEK293 cells assessed as inhibition of tail current at holding potential of -70 mV at 31.6 uM after 10 mins by whole-cell patch clamp method; format: cell-based; details: HEK293 cells that express hERG
hERG (KCNH2) [3] = target: T1, hERG (KCNH2); test: Inhibition of human ERG expressed in HEK293 cells assessed as inhibition of tail current at holding potential of -70 mV at 10 uM after 10 mins by whole-cell patch clamp method; format: cell-based; details: HEK293 cells that express hERG
hERG (KCNH2) [4] = target: T1, hERG (KCNH2); test: Inhibition of human ERG expressed in HEK293 cells assessed as inhibition of tail current at holding potential of -70 mV at 3.16 uM after 10 mins by whole-cell patch clamp method; format: cell-based; details: HEK293 cells that express hERG
[5] = target: T2, Prostaglandin G/H synthase 1 (Homo sapiens, UniProt P23219); test: Inhibition of human platelets COX1 assessed as PGE2 production using arachidonic acid as substrate at 10 uM preincubated for 15 mins measured after 15 mins by EIA
hERG (KCNH2) [6] = target: T1, hERG (KCNH2); test: Inhibition of human ERG expressed in HEK293 cells assessed as inhibition of tail current at holding potential of -70 mV at 1 uM after 10 mins by whole-cell patch clamp method relative to control; format: cell-based; details: HEK293 cells that express hERG
hERG (KCNH2) [7] = target: T1, hERG (KCNH2); test: Inhibition of human ERG expressed in HEK293 cells assessed as inhibition of tail current at holding potential of -70 mV at 1 uM after 10 mins by whole-cell patch clamp method; format: cell-based; details: HEK293 cells that express hERG
hERG (KCNH2) [8] = target: T1, hERG (KCNH2); test: Inhibition of human ERG expressed in HEK293 cells assessed as inhibition of tail current at holding potential of -70 mV at 3.16 uM after 10 mins by whole-cell patch clamp method relative to control; format: cell-based; details: HEK293 cells that express hERG
[9] = target: T3, Prostaglandin G/H synthase 2 (Homo sapiens, UniProt P35354); test: Inhibition of human recombinant COX2 expressed in Sf21 cells assessed as PGE2 production using arachidonic acid as substrate preincubated for 15 mins measured after 5 mins by EIA
T3 sequence (P35354 whole entry): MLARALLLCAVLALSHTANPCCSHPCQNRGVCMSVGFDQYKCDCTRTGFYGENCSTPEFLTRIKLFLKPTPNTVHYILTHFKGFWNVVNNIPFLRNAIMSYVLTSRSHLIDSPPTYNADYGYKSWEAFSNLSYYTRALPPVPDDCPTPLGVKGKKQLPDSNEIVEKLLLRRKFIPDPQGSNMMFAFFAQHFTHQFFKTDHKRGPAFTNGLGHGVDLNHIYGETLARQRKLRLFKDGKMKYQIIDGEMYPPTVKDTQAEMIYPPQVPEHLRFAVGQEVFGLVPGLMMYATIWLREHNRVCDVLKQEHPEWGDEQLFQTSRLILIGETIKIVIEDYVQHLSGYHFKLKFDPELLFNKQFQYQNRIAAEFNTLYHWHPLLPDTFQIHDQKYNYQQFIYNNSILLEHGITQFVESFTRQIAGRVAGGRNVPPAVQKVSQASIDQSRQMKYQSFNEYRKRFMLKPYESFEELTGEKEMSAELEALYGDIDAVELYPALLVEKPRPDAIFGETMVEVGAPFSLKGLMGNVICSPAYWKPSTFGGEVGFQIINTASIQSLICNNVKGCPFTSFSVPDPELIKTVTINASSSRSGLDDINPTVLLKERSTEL

[10] = target: T2, Prostaglandin G/H synthase 1; test: Inhibition of human platelets COX1 assessed as PGE2 production using arachidonic acid as substrate preincubated for 15 mins measured after 15 mins by EIA

T2 sequence (P23219 whole entry): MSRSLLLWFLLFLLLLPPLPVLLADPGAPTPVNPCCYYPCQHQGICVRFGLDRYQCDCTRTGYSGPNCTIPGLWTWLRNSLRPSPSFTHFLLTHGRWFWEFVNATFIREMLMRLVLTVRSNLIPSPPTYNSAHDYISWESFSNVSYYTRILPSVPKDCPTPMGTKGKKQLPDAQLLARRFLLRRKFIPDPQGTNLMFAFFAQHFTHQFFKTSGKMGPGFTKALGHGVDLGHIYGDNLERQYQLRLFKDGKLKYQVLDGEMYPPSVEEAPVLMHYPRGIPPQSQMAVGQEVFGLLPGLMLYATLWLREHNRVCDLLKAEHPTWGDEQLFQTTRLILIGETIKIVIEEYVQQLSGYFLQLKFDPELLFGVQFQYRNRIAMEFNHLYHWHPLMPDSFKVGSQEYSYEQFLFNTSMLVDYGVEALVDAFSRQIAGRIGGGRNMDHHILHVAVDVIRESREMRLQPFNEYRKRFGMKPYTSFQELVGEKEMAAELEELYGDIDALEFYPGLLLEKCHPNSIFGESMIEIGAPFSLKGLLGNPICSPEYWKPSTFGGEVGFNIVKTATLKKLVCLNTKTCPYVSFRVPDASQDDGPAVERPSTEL
T1 sequence (Q12809 whole entry): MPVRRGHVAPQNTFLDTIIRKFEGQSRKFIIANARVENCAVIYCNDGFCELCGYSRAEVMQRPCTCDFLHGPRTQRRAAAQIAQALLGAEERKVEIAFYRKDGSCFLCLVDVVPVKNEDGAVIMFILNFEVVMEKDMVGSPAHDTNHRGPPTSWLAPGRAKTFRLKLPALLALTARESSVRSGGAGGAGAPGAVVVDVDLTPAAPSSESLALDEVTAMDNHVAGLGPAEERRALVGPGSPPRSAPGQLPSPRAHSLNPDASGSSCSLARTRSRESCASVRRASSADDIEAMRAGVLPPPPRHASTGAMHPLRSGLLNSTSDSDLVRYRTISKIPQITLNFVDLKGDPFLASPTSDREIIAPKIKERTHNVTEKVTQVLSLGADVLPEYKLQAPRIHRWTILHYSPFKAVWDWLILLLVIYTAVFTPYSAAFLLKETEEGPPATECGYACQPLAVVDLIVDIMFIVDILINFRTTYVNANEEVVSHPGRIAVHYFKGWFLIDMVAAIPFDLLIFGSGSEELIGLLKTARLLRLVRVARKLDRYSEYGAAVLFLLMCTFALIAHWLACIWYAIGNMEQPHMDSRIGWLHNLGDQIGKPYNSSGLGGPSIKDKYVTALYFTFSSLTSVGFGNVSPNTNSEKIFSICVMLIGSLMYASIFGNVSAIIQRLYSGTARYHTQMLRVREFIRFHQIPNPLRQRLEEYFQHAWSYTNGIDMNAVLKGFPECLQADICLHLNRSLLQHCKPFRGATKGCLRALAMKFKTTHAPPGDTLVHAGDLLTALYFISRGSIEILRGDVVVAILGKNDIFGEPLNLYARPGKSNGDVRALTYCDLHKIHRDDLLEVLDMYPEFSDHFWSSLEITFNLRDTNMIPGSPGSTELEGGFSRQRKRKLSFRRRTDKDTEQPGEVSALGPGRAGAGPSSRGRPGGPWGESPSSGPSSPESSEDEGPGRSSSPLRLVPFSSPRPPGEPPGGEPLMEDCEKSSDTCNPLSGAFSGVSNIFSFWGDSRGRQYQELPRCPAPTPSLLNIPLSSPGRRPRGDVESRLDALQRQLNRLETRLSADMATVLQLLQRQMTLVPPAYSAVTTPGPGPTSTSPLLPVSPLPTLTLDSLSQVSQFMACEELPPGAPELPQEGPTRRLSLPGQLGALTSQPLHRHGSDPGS

IC50 [9] [nM] | IC50 [10] [nM] | SMILES | inhibition at 10 min, 100 µM (hERG (KCNH2) [1]) [%] | inhibition at 10 min, 31.6 µM (hERG (KCNH2) [2]) [%] | inhibition at 10 min, 10 µM (hERG (KCNH2) [3]) [%] | inhibition at 10 min, 3.16 µM (hERG (KCNH2) [4]) [%] | inhibition [5] [%] | inhibition at 10 min, 1 µM (hERG (KCNH2) [6]) [%] | inhibition at 10 min, 1 µM (hERG (KCNH2) [7]) [%] | inhibition at 10 min, 3.16 µM (hERG (KCNH2) [8]) [%]
– | – | C[S+](=N)([O-])c1ccc(C2=C(c3ccccc3)C(=O)OC2)cc1 (stereo unspecified) | 29.6 | 27.6 | 20 | 7 | 26 | -0.1 | 1.7 | –
– | – | CS(=O)(=O)c1ccc(C2=C(c3ccccc3)C(=O)OC2)cc1 [ROFECOXIB] | 27.6 | 19.1 | 10.4 | 8.3 | – | – | 6.8 | -10.2
156 | 42.4 | CN=[S+](C)([O-])c1ccc(C2=C(c3ccccc3)C(=O)OC2)cc1 (stereo unspecified) | – | – | – | – | 10 | – | – | –

Source: ChEMBL document CHEMBL1811901, “Bioactive sulfoximines: syntheses and properties of Vioxx analogs” (Bioorg Med Chem Lett, 2011)
